Source: ChEMBL document CHEMBL1128141, “Chemical modification of ring c of himbacine: Discovery of a pharmacophoric element for M2-selectivity” (Bioorg Med Chem Lett, 1995)
pKd: −log10 of the molar value.

Columns and labels:
[1] = biological target: Muscarinic acetylcholine receptors; M1 & M2 (Homo sapiens) (UniProt P11229+P08172); assay: Ratio of binding affinities towards M2 receptor to M1 receptor; assay type: protein assay
[2] = biological target: T1, Muscarinic acetylcholine receptor M1 (Homo sapiens, UniProt P11229); assay: Binding affinity against M1 receptor expressed in CHO-K1 cells transfected with human muscarinic receptor sequence using radioligand [3H]quinuclidinyl benzilate ([3H]QNB); assay type: cell-based
T1 sequence (P11229 whole entry): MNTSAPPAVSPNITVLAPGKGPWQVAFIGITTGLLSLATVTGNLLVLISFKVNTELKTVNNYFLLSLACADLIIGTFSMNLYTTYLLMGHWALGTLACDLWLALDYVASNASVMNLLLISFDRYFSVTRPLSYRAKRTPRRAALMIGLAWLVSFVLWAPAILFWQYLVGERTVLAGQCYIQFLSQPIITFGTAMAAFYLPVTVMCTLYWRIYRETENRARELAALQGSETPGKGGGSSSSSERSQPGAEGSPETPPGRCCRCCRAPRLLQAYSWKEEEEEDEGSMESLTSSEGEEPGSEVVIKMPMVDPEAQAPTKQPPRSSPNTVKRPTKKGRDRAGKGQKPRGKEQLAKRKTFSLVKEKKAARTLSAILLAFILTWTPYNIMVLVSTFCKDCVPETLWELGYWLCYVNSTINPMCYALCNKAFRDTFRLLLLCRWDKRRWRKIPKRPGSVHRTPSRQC

[3] = biological target: T2, Muscarinic acetylcholine receptor M2 (Rattus norvegicus, UniProt P10980); assay: Binding affinity against M2 receptor in rat brainstem cells using radioligand [3H]quinuclidinyl benzilate ([3H]QNB); assay type: cell-based, Brain
T2 sequence (P10980 whole entry): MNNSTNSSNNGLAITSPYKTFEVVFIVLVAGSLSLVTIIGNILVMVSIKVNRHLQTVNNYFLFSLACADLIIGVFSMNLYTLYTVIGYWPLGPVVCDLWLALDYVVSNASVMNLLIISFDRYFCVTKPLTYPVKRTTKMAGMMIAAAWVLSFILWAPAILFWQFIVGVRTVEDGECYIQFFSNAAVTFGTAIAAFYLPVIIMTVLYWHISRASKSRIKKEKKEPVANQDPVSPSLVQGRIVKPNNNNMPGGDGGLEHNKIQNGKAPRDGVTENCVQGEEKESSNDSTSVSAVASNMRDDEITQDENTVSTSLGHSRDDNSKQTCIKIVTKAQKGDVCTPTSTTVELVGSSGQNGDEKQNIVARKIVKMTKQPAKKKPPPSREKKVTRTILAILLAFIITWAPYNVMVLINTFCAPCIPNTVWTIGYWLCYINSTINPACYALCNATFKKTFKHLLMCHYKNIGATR

In the case of `CC(=O)OC[C@H]1C[C@H]2CCCC[C@@H]2[C@@H](/C=C/[C@H]2CCC[C@H](C)N2C)[C@H]1[C@H](C)OC(C)=O`, the Selectivity [1] was 2.4, the pKd [2] was 6.22 and the pKd [3] was 6.60.

`C[C@@H]1O[C@H](O)[C@H]2C[C@H]3CCCC[C@@H]3[C@@H](/C=C/[C@H]3CCC[C@H](C)N3C)[C@H]21` showed a Selectivity [1] of 4.4, a pKd [2] of 6.37 and a pKd [3] of 7.02.

`C[C@@H]1OC[C@H]2C[C@H]3CCCC[C@@H]3[C@@H](/C=C/[C@H]3CCC[C@H](C)N3C)[C@H]21` gave a Selectivity [1] of 0.5, a pKd [2] of 6.78 and a pKd [3] of 6.45.

In the case of `C[C@@H]1O[C@H](OC(=O)C(C)(C)C)[C@H]2C[C@H]3CCCC[C@@H]3[C@@H](/C=C/[C@H]3CCC[C@H](C)N3C)[C@H]21`, the Selectivity [1] was 5.4, the pKd [2] was 5.60 and the pKd [3] was 6.33.

With `CC(=O)O[C@H]1O[C@@H](C)[C@@H]2[C@H](/C=C/[C@H]3CCC[C@H](C)N3C)[C@H]3CCCC[C@@H]3C[C@H]12` the Selectivity [1] was 9.7, the pKd [2] was 6.06 and the pKd [3] was 7.05.

With `C[C@H](O)[C@H]1[C@@H](CO)C[C@H]2CCCC[C@@H]2[C@H]1/C=C/[C@H]1CCC[C@H](C)N1C` the Selectivity [1] was 1.7, the pKd [2] was 6.31 and the pKd [3] was 6.53.

`C[C@@H]1OC(=O)[C@H]2C[C@H]3CCCC[C@@H]3[C@@H](/C=C/[C@H]3CCC[C@H](C)N3C)[C@@H]12` [HIMBACINE] showed a Selectivity [1] of 14.8, a pKd [2] of 6.83 and a pKd [3] of 8.00.
